Test results taken from ChEMBL document CHEMBL3045315, “Effect of ring A and ring B substitution on the cytotoxic potential of pyrazole tethered chalcones” (Med Chem Res, 2012).

Experiments:
Format in all cases: functional, cell-based
[1] = test system: HEp-2; assay: Cytotoxicity against Homo sapiens (human) Hep2 cells after 48 hr by SRB assay; details: HEp-2, 48 h
[2] = test system: IMR-32; assay: Cytotoxicity against Homo sapiens (human) IMR32 cells after 48 hr by SRB assay; details: IMR-32, 48 h
[3] = test system: OVCAR; assay: Cytotoxicity against Homo sapiens (human) OVCAR cells after 48 hr by SRB assay
[4] = test system: PC-3; assay: Cytotoxicity against Homo sapiens (human) PC3 cells after 48 hr by SRB assay; details: PC-3, 48 h

Row | Structure (SMILES) | IC50 [1] [µM] | IC50 [2] [µM] | IC50 [3] [µM] | IC50 [4] [µM]
1 | CC(=O)N1N=C(c2ccco2)CC1c1ccc(C)cc1 (stereo not given) | 19.3 | 29.1 | 11.2 | 21.2
2 | CC(=O)N1N=C(c2ccco2)CC1c1ccc(Br)cc1 (stereo not given) | 51.2 | 47.8 | 18.9 | 42.1
3 | CC(=O)N1N=C(c2cccc3ccccc23)CC1c1ccccc1 (stereo not given) | 11.2 | 7.76 | 7.82 | 8.46
4 | CC(=O)N1N=C(c2cccc3ccccc23)CC1c1cccc([N+](=O)[O-])c1 (stereo not given) | 4.08 | 3.96 | 3.65 | 3.13
5 | COc1ccc(C2CC(c3cccc4ccccc34)=NN2C(C)=O)cc1 (stereo not given) | 3.73 | 4.99 | 6.71 | 4.93
6 | CC(=O)N1N=C(c2cccc3ccccc23)CC1c1cccc(Br)c1 (stereo not given) | 9.88 | 11.9 | 12.3 | 12
7 | CC(=O)N1N=C(c2cccc3ccccc23)CC1c1ccccc1[N+](=O)[O-] (stereo not given) | 3.96 | 3.98 | 4.32 | 3.54
8 | COc1ccc(OC)c(C2CC(c3cccc4ccccc34)=NN2C(C)=O)c1 (stereo not given) | 1.31 | 1.58 | 2.65 | 1.98
9 | COc1ccc(C2CC(c3cccc4ccccc34)=NN2C(C)=O)cc1OC (stereo not given) | 1.03 | 1.68 | 2.69 | 2.01
10 | COc1cc(C2CC(c3cccc4ccccc34)=NN2C(C)=O)cc(OC)c1OC (stereo not given) | 1.01 | 1.54 | 1.77 | 1.09
11 | COc1cc(C2CC(c3cccc4ccccc34)=NN2C(C)=O)ccc1O (stereo not given) | 1.13 | 1.78 | 2.73 | 2.13
12 | CC(=O)N1N=C(c2cccc3ccccc23)CC1c1cccc(Cl)c1Cl (stereo not given) | 16.8 | 22.1 | 19.1 | 20.1
13 | CC(=O)N1N=C(c2cccc3ccccc23)CC1c1ccc2c(c1)OCO2 (stereo not given) | 1.07 | 1.91 | 3.76 | 2.09
14 | CC(=O)N1N=C(c2cccc3ccccc23)CC1c1ccc2ccccc2c1 (stereo not given) | 0.19 | 0.27 | 0.25 | 0.21
15 | CC(=O)N1N=C(c2ccco2)CC1c1ccccc1[N+](=O)[O-] (stereo not given) | 47.9 | 27.9 | 28.3 | 19
16 | CC(=O)N1N=C(c2ccco2)CC1c1cccc([N+](=O)[O-])c1 (stereo not given) | 30 | 28.9 | 23.4 | 20
17 | CC(=O)N1N=C(c2ccco2)CC1c1cccc(O)c1 (stereo not given) | 10 | 11.8 | 13.2 | 16.5
18 | CC(=O)N1N=C(c2ccco2)CC1c1ccc([N+](=O)[O-])cc1 (stereo not given) | 21.8 | 35.8 | 23 | 21.3
19 | CC(=O)N1N=C(c2ccco2)CC1c1ccc(Cl)cc1 (stereo not given) | 57.4 | 38.9 | 31.3 | 39
20 | COc1ccc(C2CC(c3ccco3)=NN2C(C)=O)cc1 (stereo not given) | 15.6 | 14.5 | 14.3 | 15.5
21 | CC(=O)N1N=C(c2ccco2)CC1c1ccc(N(C)C)cc1 (stereo not given) | 16 | 16.1 | 14.6 | 16.7
22 | COc1ccc(OC)c(C2CC(c3ccco3)=NN2C(C)=O)c1 (stereo not given) | 13.3 | 11.8 | 11 | 11.2
23 | COc1cc(C2CC(c3ccco3)=NN2C(C)=O)cc(OC)c1OC (stereo not given) | 21.3 | 9.87 | 10.9 | 9.65

Row | Structure (SMILES) | IC50 [1] [µM] | IC50 [2] [µM] | IC50 [3] [µM] | IC50 [4] [µM]
24 | COc1ccc(C2CC(c3ccco3)=NN2C(C)=O)cc1OC (stereo not given) | 9.99 | 11.2 | 31.2 | 12.3
25 | COc1cc(OC)c(C2CC(c3ccco3)=NN2C(C)=O)cc1OC (stereo not given) | 6.69 | 7.76 | 6.76 | 8.98
26 | COc1cc(C2CC(c3ccco3)=NN2C(C)=O)ccc1O (stereo not given) | 10.1 | 23.3 | 11.3 | 12.9
27 | CC(=O)N1N=C(c2ccco2)CC1c1cccc(Cl)c1Cl (stereo not given) | 43.2 | 62.2 | 81.2 | 61.2
28 | CC(=O)N1N=C(c2ccco2)CC1c1ccc2c(c1)OCO2 (stereo not given) | 20 | 12.3 | 12.3 | 16.7
29 | COc1ccc(C2CC(c3ccc4ccccc4c3)=NN2C(C)=O)cc1 (stereo not given) | 3.23 | 4.12 | 5.79 | 4.53
30 | CC(=O)N1N=C(c2ccc3ccccc3c2)CC1c1ccc2ccccc2c1 (stereo not given) | 0.17 | 0.19 | 0.23 | 0.2
31 | CC(=O)N1N=C(c2cccc3ccccc23)CC1c1ccco1 (stereo not given) | 17 | 8 | 13 | 18
32 | CC(=O)N1N=C(c2cccc3ccccc23)CC1/C=C/c1ccccc1 (stereo not given) | 21.1 | 26.7 | 24 | 21.1
33 | CC(=O)N1N=C(c2ccc3ccccc3c2)CC1c1ccccc1 (stereo not given) | 8.4 | 10 | 21.5 | 7.4
34 | CC(=O)N1N=C(c2ccc3ccccc3c2)CC1c1cccc([N+](=O)[O-])c1 (stereo not given) | 3.87 | 3.28 | 3.39 | 2.98
35 | CC(=O)N1CC(c2ccc3c(c2)OCO3)C(c2ccc3ccccc3c2)=N1 (stereo not given) | 1.01 | 1.56 | 3.45 | 1.97
36 | CC(=O)N1N=C(c2ccc3ccccc3c2)CC1c1ccccc1[N+](=O)[O-] (stereo not given) | 3.63 | 3.36 | 3.48 | 3.01
37 | CC(=O)N1N=C(c2ccc3ccccc3c2)CC1c1cccc(Cl)c1Cl (stereo not given) | 12.5 | 16.9 | 15.1 | 17.9
38 | COc1cc(C2CC(c3ccc4ccccc4c3)=NN2C(C)=O)cc(OC)c1OC (stereo not given) | 0.53 | 0.67 | 0.64 | 0.57
39 | COc1ccc(C2CC(c3ccc4ccccc4c3)=NN2C(C)=O)c(OC)c1OC (stereo not given) | 0.59 | 0.78 | 0.58 | 0.61
40 | COc1ccc(OC)c(C2CC(c3ccc4ccccc4c3)=NN2C(C)=O)c1 (stereo not given) | 1.09 | 1.32 | 2.33 | 1.66
41 | COc1ccc(C2CC(c3ccc4ccccc4c3)=NN2C(C)=O)cc1OC (stereo not given) | 1.01 | 1.59 | 2.45 | 1.98
42 | COc1ccc(C2CC(c3ccc4ccccc4c3)=NN2C(C)=O)cc1O (stereo not given) | 1.02 | 1.49 | 2.16 | 2.04
43 | CC(=O)N1N=C(c2ccc3ccccc3c2)CC1c1cccc(Br)c1 (stereo not given) | 8.78 | 9.87 | 10.8 | 10.9
44 | CC(=O)N1N=C(c2ccc3ccccc3c2)CC1c1ccco1 (stereo not given) | 19 | 11 | 18 | 23
45 | COc1ccc(C2CC(c3cccc4ccccc34)=NN2C(C)=O)c(OC)c1OC (stereo not given) | 1.29 | 1.79 | 1.98 | 1.22
